According to US20090099195A1 (ASTRAZENECA AB, priority 2007, published 2009):

The compounds below were run against T1, hP2X3 (human Purinergic P2X receptors subtype 3), clone B (Homo sapiens, UniProt P56373) (assay: hP2X3 FLIPR calcium (Fluo-4) antagonist assay, clone B). Conditions: Human P2X3 FLIPR Clone B IC50 (nM), RLE cells expressing hP2X3 clone B (NM_002559); agonist 500 nM α,β-methylene-ATP.
T1 sequence (P56373 1-397): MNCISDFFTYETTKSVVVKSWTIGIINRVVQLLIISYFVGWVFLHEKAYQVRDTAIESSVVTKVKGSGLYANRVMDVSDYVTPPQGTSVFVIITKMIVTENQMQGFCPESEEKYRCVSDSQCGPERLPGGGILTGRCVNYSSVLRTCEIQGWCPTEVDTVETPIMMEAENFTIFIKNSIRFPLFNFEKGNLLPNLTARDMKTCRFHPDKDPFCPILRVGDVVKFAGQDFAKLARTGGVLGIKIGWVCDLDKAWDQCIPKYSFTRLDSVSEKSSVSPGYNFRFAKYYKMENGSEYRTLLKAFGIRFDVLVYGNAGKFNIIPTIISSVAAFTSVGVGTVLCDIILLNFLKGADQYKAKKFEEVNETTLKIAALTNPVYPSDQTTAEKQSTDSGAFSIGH

SMILES	IC50
CC(C)N1Cc2c(NC(c3ccc(F)cc3)c3ccc(F)cc3)nc(NCCN(C)C)nc2C1=O [Example 17, 4-{[bis(4-fluorophenyl)methyl]amino}-2-{[2-(dimethylamino)ethyl]amino}-6-isopropyl-5,6-dihydro-7H-pyrrolo[3,4-d]pyrimidin-7-one]	70 nM
CCOc1cc([C@@H](C)Nc2nc(N3CCN(C(C)=O)CC3)nc3c2CN(C(C)C)C3=O)ccc1C [Example 174, (R)-2-(4-acetylpiperazin-1-yl)-4-(1-(3-ethoxy-4-methylphenyl)ethylamino)-6-isopropyl-5H-pyrrolo[3,4-d]pyrimidin-7(6H)-one]	600 nM
CC(=O)N1CCN(c2nc(NCc3cc(-c4ccccc4)nn3C)c3c(n2)C(=O)N(C(C)C)C3)CC1 [Example 154, 4-(4-acetylpiperazin-1-yl)-2-[(2-methyl-5-phenyl-pyrazol-3-yl)methylamino]-8-propan-2-yl-3,5,8-triazabicyclo[4.3.0]nona-1,3,5-trien-7-one]	160 nM
CC(=O)N1CCN(c2nc3c(c(N(C)Cc4cc5ccccc5nc4C)n2)CN(C(C)C)C3=O)CC1 [Example 347, 2-(4-acetylpiperazin-1-yl)-6-isopropyl-4-(methyl((2-methylquinolin-3-yl)methyl)amino)-5H-pyrrolo[3,4-d]pyrimidin-7(6H)-one]	2900 nM
CC(=O)N(Cc1cc2ccccc2cn1)c1nc(N2CCN(C(C)=O)[C@H](C)C2)nc2c1CN(C(C)C)C2=O [Example 326, (R)—N-(2-(4-acetyl-3-methylpiperazin-1-yl)-6-isopropyl-7-oxo-6,7-dihydro-5H-pyrrolo[3,4-d]pyrimidin-4-yl)-N-(isoquinolin-3-ylmethyl)acetamide]	590 nM
CC(=O)N1CCN(c2nc(NCc3ccc4c(c3)CCCN4C)c3c(n2)C(=O)N(C(C)C)C3)CC1 [Example 38, 2-(4-acetylpiperazin-1-yl)-6-isopropyl-4-{[(1-methyl-1,2,3,4-tetrahydroquinolin-6-yl)methyl]amino}-5,6-dihydro-7H-pyrrolo[3,4-d]pyrimidin-7-one]	12000 nM

More lines, in order of falling IC50, values ahead:

IC50	SMILES
5200 nM	CC(=O)N1CCN(c2nc(N[C@@H](C)c3ccc(OC(CF)CF)cc3)c3c(n2)C(=O)N(C(C)C)C3)CC1 [Example 251, (S)-2-(4-acetylpiperazin-1-yl)-4-(1-(4-(1,3-difluoropropan-2-yloxy)phenyl)ethylamino)-6-isopropyl-5H-pyrrolo[3,4-d]pyrimidin-7(6H)-one]
270 nM	CC(C)N1Cc2c(Nc3ccc(Cl)cc3)nc(N3CCN(C(=O)CC4NC(=O)NC4=O)CC3)nc2C1=O (centres unmarked) [Example 31, 5-[2-(4-{4-[(4-chlorophenyl)amino]-6-isopropyl-7-oxo-6,7-dihydro-5H-pyrrolo[3,4-d]pyrimidin-2-yl}piperazin-1-yl)-2-oxoethyl]imidazolidine-2,4-dione]
270 nM	CC(C)N1Cc2c(NC3c4cc(F)ccc4CCc4ncccc43)nc(NCCN(C)C)nc2C1=O (centres unmarked) [Example 22, 2-{[2-(dimethylamino)ethyl]amino}-4-[(7-fluoro-10,11-dihydro-5H-benzo[4,5]cyclohepta[1,2-b]pyridin-5-yl)amino]-6-isopropyl-5,6-dihydro-7H-pyrrolo[3,4-d]pyrimidin-7-one]
120 nM	CC(=O)N1CCN(c2nc(NCc3cc(-c4ccccc4)n(C)n3)c3c(n2)C(=O)N(C(C)C)C3)CC1 [Example 153, 4-(4-acetylpiperazin-1-yl)-2-[(1-methyl-5-phenyl-pyrazol-3-yl)methylamino]-8-propan-2-yl-3,5,8-triazabicyclo[4.3.0]nona-1,3,5-trien-7-one]
91 nM	CC(=O)N1CCN(c2nc(NCc3cnc4ccccc4c3)c3c(n2)C(=O)N(C(C)C)C3)C[C@@H]1C [Example 327, (S)-2-(4-acetyl-3-methylpiperazin-1-yl)-6-isopropyl-4-(quinolin-3-ylmethylamino)-5H-pyrrolo[3,4-d]pyrimidin-7(6H)-one]
